The source of these data is ChEMBL document CHEMBL1221250, “Modification at the acidic domain of RXR agonists has little effect on permissive RXR-heterodimer activation” (Bioorg Med Chem Lett, 2010).

The target of test [1] is T1, Retinoic acid receptor alpha (Homo sapiens) (UniProt P10276).
T1 sequence (whole entry): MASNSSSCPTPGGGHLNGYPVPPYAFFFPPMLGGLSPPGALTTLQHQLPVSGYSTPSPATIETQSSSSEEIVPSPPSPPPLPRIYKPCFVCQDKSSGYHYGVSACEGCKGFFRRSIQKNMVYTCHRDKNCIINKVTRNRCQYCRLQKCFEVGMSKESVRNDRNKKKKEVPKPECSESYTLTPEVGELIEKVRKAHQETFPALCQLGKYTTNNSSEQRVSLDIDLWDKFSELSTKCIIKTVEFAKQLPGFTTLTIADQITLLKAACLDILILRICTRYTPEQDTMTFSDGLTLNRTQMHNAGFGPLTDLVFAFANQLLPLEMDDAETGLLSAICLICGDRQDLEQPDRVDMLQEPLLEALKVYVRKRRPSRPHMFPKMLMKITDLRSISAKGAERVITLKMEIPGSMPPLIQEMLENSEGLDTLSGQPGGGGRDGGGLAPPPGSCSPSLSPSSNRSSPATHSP
The experiment in a line: Transactivation of RARalpha in human COS7 cells at 10 uM by luciferase reporter gene assay. The note with it: COS-7. In kind it is cell-based. In general terms: In a reporter assay the amount or activity of a reporter protein is the signal.

Test [2] concerns the target T2, Retinoic acid receptor RXR-alpha (Homo sapiens, UniProt P19793).
T2 sequence (P19793 whole entry): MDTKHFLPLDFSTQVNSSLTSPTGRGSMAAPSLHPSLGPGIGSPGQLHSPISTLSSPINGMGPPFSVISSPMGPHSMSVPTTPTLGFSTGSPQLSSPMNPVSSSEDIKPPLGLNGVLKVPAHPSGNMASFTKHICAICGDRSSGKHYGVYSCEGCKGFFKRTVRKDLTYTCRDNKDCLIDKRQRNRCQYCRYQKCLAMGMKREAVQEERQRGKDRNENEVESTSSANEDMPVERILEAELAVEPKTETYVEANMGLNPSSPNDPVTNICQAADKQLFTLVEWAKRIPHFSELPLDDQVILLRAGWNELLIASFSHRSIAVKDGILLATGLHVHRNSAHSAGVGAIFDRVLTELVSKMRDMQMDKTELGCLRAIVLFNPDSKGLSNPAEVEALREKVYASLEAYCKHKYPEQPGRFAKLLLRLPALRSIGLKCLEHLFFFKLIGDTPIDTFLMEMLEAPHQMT
The experiment in a line: Agonist activity at RXRalpha by luciferase reporter gene assay. In kind it is functional.

For test [3], the target named is T3, Peroxisome proliferator-activated receptor gamma (Homo sapiens) (UniProt P37231).
T3 sequence (whole entry): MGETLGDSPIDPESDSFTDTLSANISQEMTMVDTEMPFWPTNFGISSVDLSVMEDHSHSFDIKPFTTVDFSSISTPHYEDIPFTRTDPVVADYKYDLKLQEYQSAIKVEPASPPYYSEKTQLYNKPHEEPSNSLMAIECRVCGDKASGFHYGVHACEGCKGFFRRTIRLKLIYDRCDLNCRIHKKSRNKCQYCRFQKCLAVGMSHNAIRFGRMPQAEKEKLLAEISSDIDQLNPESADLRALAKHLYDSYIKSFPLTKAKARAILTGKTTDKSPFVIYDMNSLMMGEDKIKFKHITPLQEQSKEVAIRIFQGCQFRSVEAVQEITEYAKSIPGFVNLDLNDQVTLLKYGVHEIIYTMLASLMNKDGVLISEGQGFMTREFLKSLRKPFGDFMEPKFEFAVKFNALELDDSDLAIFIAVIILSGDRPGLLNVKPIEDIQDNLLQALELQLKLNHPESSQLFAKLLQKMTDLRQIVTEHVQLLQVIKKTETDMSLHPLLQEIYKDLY
The experiment in a line: Transactivation of PPARgamma.

For test [4], the target named is RXR alpha/PPAR gamma (Homo sapiens) (UniProt P37231+P19793). The experiment in a line: Transactivation of PPARgamma/RXRalpha heterodimer. In kind it is protein-complex assay.
For test [5], the target named is T4, Oxysterols receptor LXR-alpha (Homo sapiens) (UniProt Q13133).
T4 sequence (whole entry): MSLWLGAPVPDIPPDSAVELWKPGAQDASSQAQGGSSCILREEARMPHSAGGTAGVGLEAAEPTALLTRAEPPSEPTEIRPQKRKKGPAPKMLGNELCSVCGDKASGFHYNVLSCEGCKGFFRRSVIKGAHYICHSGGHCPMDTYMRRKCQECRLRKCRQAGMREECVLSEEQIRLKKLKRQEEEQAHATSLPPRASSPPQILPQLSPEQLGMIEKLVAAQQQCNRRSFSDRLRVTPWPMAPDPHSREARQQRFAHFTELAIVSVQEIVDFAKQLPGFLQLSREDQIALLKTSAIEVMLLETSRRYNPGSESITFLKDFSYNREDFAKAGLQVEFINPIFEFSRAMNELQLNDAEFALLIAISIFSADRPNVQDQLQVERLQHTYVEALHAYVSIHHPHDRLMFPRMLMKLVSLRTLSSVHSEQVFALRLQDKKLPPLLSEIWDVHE
Put plainly: Transactivation of LXRalpha.

In test [6] the target is Retinoic acid receptor RXR-alpha/oxysterols receptor LXR-alpha (Homo sapiens) (UniProt P19793+Q13133). Put plainly: Transactivation of LXRalpha/RXRalpha. It counts as protein-complex assay.
The target of test [7] is T5, Retinoic acid receptor RXR-alpha (Homo sapiens) (UniProt P19793).
T5 sequence (whole entry): T2 sequence (P19793 whole entry)
The experiment in a line: Transactivation of RXRalpha in human COS7 cells at 10 uM by luciferase reporter gene assay. It counts as cell-based. The note with it: COS-7.

Calls of active or inactive are those of the source. No cut-off for these calls is given here.

`CCN(c1ccc2c(c1)C(C)(C)CCC2(C)C)c1ccc(C(=O)O)cn1`: the result in test [1], in test [3] and in test [5] was inactive. In test [2], the EC50 turned out to be 5.28 nM. The Activity in test [4] and in test [6] was 60% throughout.
For the compound `CCN(c1ccc2c(c1)C(C)(C)CCC2(C)C)c1ccc(-c2nnn[nH]2)cn1`, the outcome in test [1], in test [3] and in test [5] was inactive. For the same compound, the EC50 in test [2] came to 205 nM. Further, the Activity is 40% in test [4] and 60% in test [6].
Turning to `CCN(c1ccc2c(c1)C(C)(C)CCC2(C)C)c1ccc(C(=O)NO)cn1`, the outcome in test [1], in test [3] and in test [5] was inactive. Moreover, the Activity in test [4] turned out to be 20%; in test [6], 50%.
As for `CCN(c1ccc2c(c1)C(C)(C)CCC2(C)C)c1ccc(P(=O)(O)O)cn1`, the result in test [1] and in test [7] was inactive.

One may read the EC50 as the concentration at which the effect is half-maximal.
